Drawing on EP3381907A1, “SYMMETRICAL 2-AMINOPHENYL-BENZAZOLYL-5-ACETATE COMPOUNDS AND THEIR USE AS ANTI-HEPARANASE” (Leadiant Biosciences SA, priority 2017, dated 2018), this text covers EC50 for two compounds.

In the assay the test system is HT1080 (human fibrosarcoma). As to the kind of experiment: SRB Cell Cytotoxicity Assay, HT1080. The format is cell-based. As to conditions: HT-1080, HT1080, 72h treatment, read-out: Concentration (µM) of test compounds at which the cell growth is inhibited by 50 %. HT1080. An excerpt: SRB Cell Cytotoxicity Assay is an assay based upon the quantitative staining of cellular proteins by sulforhodamine B (SRB). This assay can be used for high-throughput drug screening (Vichai & Kirkitara, Nature Protocol. 2006, 1, 112). Sulforhodamine B is an anionic aminoxanthene dye that forms an electrostatic complex with the basic amino acid residues of proteins under moderately acid conditions, which provides a sensitive linear response.
To assess a putative antiproliferative activity of the selected compounds, HT1080 (human fibrosarcoma), U87MG (human glioblastoma astrocytoma) and U2OS (human osteosarcoma) cell lines were treated for 72h, in triplicate, with increasing concentrations of heparanase inhibitors. Inhibition of cell proliferation was then measured by the classical colorimetric SRB Cell Cytotoxicity assay. Absorbance was measured by spectrophotometer at a wavelength of 510 nm and cell proliferation was determined as percent with respect to control cells (cells treated with the vehicle alone). EC50 values were then determined by GraphPad Prism.

In the case of `O=C(O)CNC(=O)Cc1ccc2oc(-c3ccc(NC(=O)Nc4ccc(-c5nc6cc(CC(=O)NCC(=O)O)ccc6o5)cc4F)c(F)c3)nc2c1` [Compound 25, 2,2'-((2,2'-(((Carbonylbis(azanediyl))bis(3-fluoro-4,1-phenylene))bis(benzo[d]oxazole-2,5-diyl))bis(acetyl))bis(azanediyl))diacetic acid], the EC50 was more than 10 µM.

Regarding `O=C(O)Cc1ccc2oc(-c3ccc(NC(=O)Nc4ccc(-c5nc6cc(CC(=O)O)ccc6o5)cc4F)c(F)c3)nc2c1` [Compound 20, 2,2'-(((Carbonylbis(azanediyl))bis(3-fluoro-4,1-phenylene))bis(benzo[d]oxazole-2,5-diyl))diacetic acid], the EC50 was more than 10 µM.
